{"source": "patent US20220142958A1", "about": "“MEDICINAL COMPOSITION HAVING EXCELLENT STABILITY” (EA Pharma Co., Ltd., priority 2019, published 2022)", "key": {"serum iPTH": {"system": "serum iPTH", "experiment": "PK and PK/PD analysis of P1 (three-compartment model, indirect response model incorporating rebound)", "format": "in vivo, human", "details": "±standard error", "experimental": "A PK/PD analysis was conducted to estimate the clinically effective dose based on the results from P1. The dose of 2.5 mg seemed to be excessive and thus was eliminated from the analysis. PK (mean plasma concentration) and PD (mean iPTH level normalized by the levels of the placebo group and the 0-hour level) data of the doses of 0.01 mg, 0.1 mg and 1 mg were used. An indirect response model incorporating rebound was used for the PK/PD analysis.\nBased on the results of PK of the three given doses (0.01 mg, 0.1 mg, and 1 mg) in P1, the three given doses were simultaneously analyzed using a three-compartment model to calculate the PK parameters (FIG. 2-5 and Table 16-2).\nUsing the calculated PK parameters as an input function, PK/PD analysis was performed using an indirect response model incorporating rebound (FIG. 2-6) to calculate the EC50 value in healthy adults (FIG. 2-7 and Table 16-3)."}, "[1]": {"experiment": "Example 1A: residual ratio of Compound A1 in buffer solutions stored at 5° C.", "format": "physicochemical", "details": "for Residual ratio (%): 0.1 mg/mL", "experimental": "Compound A1 was dissolved in each of the buffer solutions so that a concentration was 0.1 mg/mL. Each of these solutions was dispensed into a glass vial and stored at 5° C. After the storage, a residual ratio was calculated according to a test method described below.\nTest method: In the solution after the storage, the residual ratio was analyzed according to a normal method using a liquid chromatography apparatus Prominence (manufactured by Shimadzu Corporation) and an ultraviolet absorptiometer (measurement wavelength: 254 nm, Prominence (manufactured by Shimadzu Corporation)). At this time, SUMIPAX ODS (3 mm×150 mm, 5 μm, manufactured by SCAS) was used as a column.\nThe residual ratio (%) of Compound A1 during each storage period at 5° C. was calculated as follows.\nResidual ratio (%) of Compound A1 during each storage period=peak area of Compound A1 in sample solution/sum of peak area of sample solution×100"}, "serum Ca concentration": {"system": "serum Ca concentration", "experiment": "Serum Ca concentration in bilaterally nephrectomized rats after single intravenous administration", "format": "in vivo, rat", "from_the_text": "After quarantine and acclimatization periods of 6 days, fifty-one rats (Crl: CD (SD), male) aged 7 weeks were fed a 100% sucrose diet ad libitum from four days before the surgery. On the day of the surgery, skin incisions were made on the back at the sites of the right and left kidneys under isoflurane anesthesia and the renal capsules were removed to ligate the renal arteries and veins and the ureters using threads before removing the right and left kidneys. A penicillin solution was given upon suturing, and 5 mL of physiological saline was intraperitoneally administered before returning the rats into the breeding cages.\nOn the day of administering the test substance, for example, a day after the bilaterally nephrectomy, approximately 100 μL of blood was collected from the tail vein without anesthesia using a capillary tube, which was centrifuged in a high speed refrigerated microcentrifuge (10,000 rpm, 5 min, 4° C.) to separate the serum. Thereafter, the serum Ca concentration was measured with a dri-chemanalyzer (model number: FUJI DRI-CHEM 7000, manufacturer: FUJI FILM Medical Co., Ltd.) to select individuals with a serum Ca concentration of 8.0 mg/dL or more and less than 14.0 mg/dL.\nOn a day after the bilaterally nephrectomy, the given doses were calculated based on the weight of the selected animals on that day. Group 1 was given a medium (physiological saline), Groups 2, 3 and 4 were given the Compound A1 solution (0.3, 3 and 30 mg/mL, respectively), and Groups 5, 6, 7 and 8 (5 rats per group) were given the comparative compound (0.3, 1, 3 and 10 mg/mL, respectively), each given a single dose of 1 ml/kg from the tail vein. Prior to the administration (0 hours), and 24 and 48 hours after the administration, approximately 300 μL of blood was collected without anesthesia from the tail vein using capillary tubes for obtaining the serum. The blood for obtaining the serum was left to stand at room temperature, and centrifuged in a high speed refrigerated microcentrifuge (10,000 rpm, 5 min, 4° C.) within a period of 30 minutes to 2 hours after the blood collection to collect the serum.\nThereafter, the serum Ca was analyzed with COBAS analyzer (Model number: COBAS INTEGRA 400 plus, manufacturer: Roche Diagnostics K.K.), and the remaining serum was stored in an ultra-low freezer (temperature set to −80±15° C.) until the day of iPTH measurement. On the day of iPTH measurement, the serum was melted at room temperature for measurement.\nA 30 mg/ml Compound A1 solution ([…] of Compound A1 dissolved in 10 ml of physiological saline) was diluted with physiological saline to prepare 0.3 mg/ml and […] Compound A1 solutions.\n149 mg of etelcalcetide (Ac-c(C) arrrar-NH2) TFA salt (WO 2011/014707 A) was prepared to have pH of 6 to 8 with 7 ml of physiological saline and a 0.5N aqueous NaOH solution, and physiological saline was further added thereto to make 10 ml. The prepared 10 mg/ml comparative compound solution was diluted with physiological saline to obtain 0.3 mg/ml and 1 mg/ml comparative compound solutions."}}, "data": [{"smiles": "Cc1c(Cl)cc(S(=O)(=O)[O-])cc1NC(=O)NC[C@H](N)C(=O)O.[Na+]", "note": "[Compound A1, sodium 3-{[(2S)-2-amino-2-carboxyethyl]carbamoylamino}-5-chloro-4-methylbenzenesulfonate]", "values": [{"measurement": "Emax", "setting": "serum iPTH; healthy adults, indirect response model incorporating rebound", "value": "0.920 ± 0.027", "unit": "ratio"}, {"measurement": "K12", "setting": "serum iPTH; three-compartment model", "value": "0.658 ± 0.136", "unit": "h⁻¹"}, {"measurement": "K13", "setting": "serum iPTH; three-compartment model", "value": "4.42 ± 1.80", "unit": "h⁻¹"}, {"measurement": "K21", "setting": "serum iPTH; three-compartment model", "value": "0.819 ± 0.049", "unit": "h⁻¹"}, {"measurement": "K31", "setting": "serum iPTH; three-compartment model", "value": "6.89 ± 1.33", "unit": "h⁻¹"}, {"measurement": "Ke", "setting": "serum iPTH; three-compartment model", "value": "1.28 ± 0.15", "unit": "h⁻¹"}, {"measurement": "Residual ratio (%)", "setting": "[1]; pH 1.1, 5° C., 24 hours", "value": 100, "unit": "%"}, {"measurement": "Residual ratio (%)", "setting": "[1]; pH 1.1, 5° C., 113 hours", "value": 100, "unit": "%"}, {"measurement": "Residual ratio (%)", "setting": "[1]; pH 1.1, 5° C., 161 hours", "value": 100, "unit": "%"}, {"measurement": "Residual ratio (%)", "setting": "[1]; pH 2.0, 5° C., 24 hours", "value": 100, "unit": "%"}, {"measurement": "Residual ratio (%)", "setting": "[1]; pH 2.0, 5° C., 113 hours", "value": 100, "unit": "%"}, {"measurement": "Residual ratio (%)", "setting": "[1]; pH 2.0, 5° C., 161 hours", "value": 100, "unit": "%"}, {"measurement": "Residual ratio (%)", "setting": "[1]; pH 3.0, 5° C., 24 hours", "value": 100, "unit": "%"}, {"measurement": "Residual ratio (%)", "setting": "[1]; pH 3.0, 5° C., 113 hours", "value": 100, "unit": "%"}, {"measurement": "Residual ratio (%)", "setting": "[1]; pH 3.0, 5° C., 161 hours", "value": 100, "unit": "%"}, {"measurement": "Residual ratio (%)", "setting": "[1]; pH 4.0, 5° C., 24 hours", "value": 100, "unit": "%"}, {"measurement": "Residual ratio (%)", "setting": "[1]; pH 4.0, 5° C., 113 hours", "value": 100, "unit": "%"}, {"measurement": "Residual ratio (%)", "setting": "[1]; pH 4.0, 5° C., 161 hours", "value": 100, "unit": "%"}, {"measurement": "Residual ratio (%)", "setting": "[1]; pH 5.0, 5° C., 24 hours", "value": 100, "unit": "%"}, {"measurement": "Residual ratio (%)", "setting": "[1]; pH 5.0, 5° C., 113 hours", "value": 100, "unit": "%"}, {"measurement": "Residual ratio (%)", "setting": "[1]; pH 5.0, 5° C., 161 hours", "value": 100, "unit": "%"}, {"measurement": "Residual ratio (%)", "setting": "[1]; pH 6.0, 5° C., 24 hours", "value": 100, "unit": "%"}, {"measurement": "Residual ratio (%)", "setting": "[1]; pH 6.0, 5° C., 113 hours", "value": 100, "unit": "%"}, {"measurement": "Residual ratio (%)", "setting": "[1]; pH 6.0, 5° C., 161 hours", "value": 100, "unit": "%"}, {"measurement": "Residual ratio (%)", "setting": "[1]; pH 7.0, 5° C., 24 hours", "value": 100, "unit": "%"}, {"measurement": "Residual ratio (%)", "setting": "[1]; pH 7.0, 5° C., 113 hours", "value": 100, "unit": "%"}, {"measurement": "Residual ratio (%)", "setting": "[1]; pH 7.0, 5° C., 161 hours", "value": 100, "unit": "%"}, {"measurement": "stability of the formulation", "setting": "[1]; pH of 1.1 to 7.0, 5° C.", "value": "stable"}, {"measurement": "mean serum Ca concentration", "setting": "serum Ca concentration; 0.3 mg/kg single i.v., 24 hours after the administration", "value": 9.07, "unit": "mg/dL"}, {"measurement": "mean serum Ca concentration", "setting": "serum Ca concentration; 0.3 mg/kg single i.v., 48 hours after the administration", "value": 10.24, "unit": "mg/dL"}, {"measurement": "mean serum Ca concentration", "setting": "serum Ca concentration; 3 mg/kg single i.v., 24 hours after the administration", "value": 7.97, "unit": "mg/dL"}, {"measurement": "mean serum Ca concentration", "setting": "serum Ca concentration; 3 mg/kg single i.v., 48 hours after the administration", "value": 8.55, "unit": "mg/dL"}, {"measurement": "mean serum Ca concentration", "setting": "serum Ca concentration; 30 mg/kg single i.v., 24 hours after the administration", "value": 7.99, "unit": "mg/dL"}, {"measurement": "mean serum Ca concentration", "setting": "serum Ca concentration; 30 mg/kg single i.v., 48 hours after the administration", "value": 8.14, "unit": "mg/dL"}, {"measurement": "lower limit value of the serum Ca concentration (simulated)", "setting": "serum Ca concentration; logistic curve fitting, 48 hours after the administration vs given dose", "value": 8.072, "unit": "mg/dL"}]}]}
